pEC50, pIC50: −log10 of the molar value.
Legend:
AR / CBP ternary complex = test: Ternary complex formation assay (sandwich ELISA, AR capture / CBP detection) in VCaP cell lysates; assay type: cell-based; conditions: 1.5 hours treatment, sandwich ELISA (AR capture, CBP or p300 detection)
Outline: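 Anti-AR (AR 441)-coated plates capture AR from lysates of VCaP cells grown ≥3 days at 50K/well in 5% charcoal-stripped FBS, dosed with bifunctional for 1.5 h and lysed 30 min at 4 °C. Co-captured CBP/p300 is probed with rabbit mAb and HRP anti-rabbit, then QuantaRed fluorescence (570/585) is read at 0, 5 and 15 min.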

VCaP cells = test: VCaP growth inhibition assay; assay type: cell-based; conditions: 30 pM R1881, 9 days, CTG
Outline: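 Growth read by CTG luminescence after 9-day exposure to compound (final 100 nM–10 fM, 1:5 steps) plus 30 pM R1881, in phenol red-free DMEM with 5% CSS. Cells pre-incubated 72 h before dosing; IC50 by nonlinear 4-parameter regression.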

pEC50 (AR / CBP ternary complex) | pIC50 (VCaP cells) | SMILES
> 9.00 | 9.00 to 10.00 | CC(=O)N1CCc2c(c(N3CCCc4cc(-c5cnn(C)c5)c(C(F)(F)F)cc43)nn2C2CCN(CC3CCN(c4ncc(C(=O)NC5C(C)(C)C(Oc6ccc(C#N)c(Cl)c6)C5(C)C)cn4)CC3)CC2)C1 (stereo not drawn) [Compound 27, 2-[4-[[4-[5-acetyl-3-[6-(1-methylpyrazol-4-yl)-7-(trifluoromethyl)-3,4-dihydro-2H-quinolin-1-yl]-6,7-dihydro-4H-pyrazolo[4,3-c]pyridin-1-yl]-1-piperidyl]methyl]-1-piperidyl]-N-[3-(3-chloro-4-cyano-phenoxy)-2,2,4,4-tetramethyl-cyclobutyl]pyrimidine-5-carboxamide]
> 9.00 | 9.00 to 10.00 | COc1cc(OC2C(C)(C)C(NC(=O)c3ccc(N4CC(OC5CCC(n6nc(N7CCCc8cc(-c9cnn(C)c9)c(C(F)F)cc87)c7c6CCN(C(C)=O)C7)CC5)C4)cc3)C2(C)C)ccc1C#N (stereo not drawn) [Compound 343, 4-[3-[4-[5-acetyl-3-[7-(difluoromethyl)-6-(1-methylpyrazol-4-yl)-3,4-dihydro-2H-quinolin-1-yl]-6,7-dihydro-4H-pyrazolo[4,3-c]pyridin-1-yl]cyclohexoxy]azetidin-1-yl]-N-[3-(4-cyano-3-methoxy-phenoxy)-2,2,4,4-tetramethyl-cyclobutyl]benzamide]
> 9.00 | ≥ 10.00 | COc1cc(OC2C(C)(C)C(NC(=O)c3ccc(N4CC(N5CCC(n6nc(N7CCCc8cc(-c9cnn(C)c9)c(C(F)F)cc87)c7c6CCN(C(C)=O)C7)CC5)C4)cc3)C2(C)C)ccc1C#N (stereo not drawn) [Compound 310, 4-[3-[4-[5-acetyl-3-[7-(difluoromethyl)-6-(1-methylpyrazol-4-yl)-3,4-dihydro-2H-quinolin-1-yl]-6,7-dihydro-4H-pyrazolo[4,3-c]pyridin-1-yl]-1-piperidyl]azetidin-1-yl]-N-[3-(4-cyano-3-methoxy-phenoxy)-2,2,4,4-tetramethyl-cyclobutyl]benzamide]
> 9.00 | 9.00 to 10.00 | C[C@@H]1CC(=O)Nc2cccc(-c3ccc4c(c3)c(-c3cnn(C)c3)nn4CCN3CCN(c4ncc(C(=O)NC5C(C)(C)C(Oc6ccc(C#N)c(Cl)c6)C5(C)C)cn4)CC3)c2N1 (stereo partly drawn) [Compound 56, N-[3-(3-chloro-4-cyano-phenoxy)-2,2,4,4-tetramethyl-cyclobutyl]-2-[4-[2-[5-[(4R)-4-methyl-2-oxo-1,3,4,5-tetrahydro-1,5-benzodiazepin-6-yl]-3-(1-methylpyrazol-4-yl)indazol-1-yl]ethyl]piperazin-1-yl]pyrimidine-5-carboxamide]
> 9.00 | ≥ 10.00 | COc1cc(OC2C(C)(C)C(NC(=O)c3ccc(N4CC5(CC(N6CCC(n7nc(N8CCCc9cc(-c%10cnn(C)c%10)c(C(F)F)cc98)c8c7CCN(C(C)=O)C8)CC6)C5)C4)cc3)C2(C)C)ccc1C#N (stereo not drawn) [Compound 349, 4-[6-[4-[5-acetyl-3-[7-(difluoromethyl)-6-(1-methylpyrazol-4-yl)-3,4-dihydro-2H-quinolin-1-yl]-6,7-dihydro-4H-pyrazolo[4,3-c]pyridin-1-yl]-1-piperidyl]-2-azaspiro[3.3]heptan-2-yl]-N-[3-(4-cyano-3-methoxy-phenoxy)-2,2,4,4-tetramethyl-cyclobutyl]benzamide]

SMILES | pEC50 (AR / CBP ternary complex) | pIC50 (VCaP cells)
CC(=O)N1CCc2c(c(N3CCCc4cc(-c5cnn(C)c5)c(C(F)F)cc43)nn2C2CCN(CC3CCN(c4ccc5c(n4)CN(C4C(C)(C)C(Oc6ccc(C#N)c(Cl)c6)C4(C)C)C5=O)CC3)CC2)C1 (stereo not drawn) [Compound 296, 4-[3-[2-[4-[[4-[5-acetyl-3-[7-(difluoromethyl)-6-(1-methylpyrazol-4-yl)-3,4-dihydro-2H-quinolin-1-yl]-6,7-dihydro-4H-pyrazolo[4,3-c]pyridin-1-yl]-1-piperidyl]methyl]-1-piperidyl]-5-oxo-7H-pyrrolo[3,4-b]pyridin-6-yl]-2,2,4,4-tetramethyl-cyclobutoxy]-2-chloro-benzonitrile] | > 9.00 | 9.00 to 10.00

From patent US20250129070A1, “BIFUNCTIONAL ANDROGEN RECEPTOR COMPOUNDS” (priority 2023, published 2025)
